Source: patent publication US8883410B2, “Method for determining the stability of organic methyleneamines in the presence of semicarbazide-sensitive amine oxidase” (Sanofi, priority 2007, dated 2014)

Target: T1, human SSAO T2 (Met211-Asn763), C-terminal 6xHIS tag (Homo sapiens, UniProt Q16853)
T1 construct: T2 (Met211-Asn763) Representing the Putative Catalytic Domain; expressed in transfected cells; cell lysate
T1 sequence (Q16853 211-763): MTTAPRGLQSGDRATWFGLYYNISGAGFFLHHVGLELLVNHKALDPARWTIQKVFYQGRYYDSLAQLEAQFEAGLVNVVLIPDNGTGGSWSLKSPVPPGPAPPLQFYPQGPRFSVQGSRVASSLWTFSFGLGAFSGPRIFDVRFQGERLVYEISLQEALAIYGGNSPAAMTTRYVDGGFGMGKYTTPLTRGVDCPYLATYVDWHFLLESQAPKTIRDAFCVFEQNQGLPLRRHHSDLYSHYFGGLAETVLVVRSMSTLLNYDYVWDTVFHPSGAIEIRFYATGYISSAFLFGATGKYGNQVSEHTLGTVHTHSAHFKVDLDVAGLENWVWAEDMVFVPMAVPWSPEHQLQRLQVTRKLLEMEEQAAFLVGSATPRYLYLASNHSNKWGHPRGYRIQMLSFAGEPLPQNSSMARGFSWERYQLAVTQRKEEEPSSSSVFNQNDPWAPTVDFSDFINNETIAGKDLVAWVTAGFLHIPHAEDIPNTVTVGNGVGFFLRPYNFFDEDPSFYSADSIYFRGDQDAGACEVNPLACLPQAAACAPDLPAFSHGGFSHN
Assay: Benzylamine stability in lysate of cells expressing T2 SSAO with C-terminal 6xHIS tag, LC/MS/MS
Type: in vitro ADME
Experimental: 4) T2 (Met211-Asn763) Representing the Putative Catalytic Domain.
The expression constructs were prepared by cloning these PCR products into the pCDNA5-FRT-To-DEST vector (Invitrogen, Gateway System™). The forward and reverse DNA sequence of each construct was confirmed including expressed sequences and at least 100 base pairs either side of this. Stable cell lines for Flp-In CHO, Flp-In CHO T-Rex, and Flp-In HEK 293 (Invitrogen, Flp-In system™) were generated using these 6 constructs according to manufacturer's instructions. Cells were co-transfected with the regulatory vector, pOG44, and each of the pCDNA5-FRT-To-DEST constructs using Lipfectamine (Invitrogen) according to manufacturer's instructions. Thus, 18 cell lines were generated: CHO Flp-In full-length SSAO; CHO Flp-In full-length SSAO with C-terminal 6×HIS tag; CHO Flp-In T1 SSAO; CHO Flp-In T1 SSAO with C-terminal 6×HIS tag; CHO Flp-In T2 SSAO; CHO Flp-In T2 SSAO with C-terminal 6×HIS tag; CHO T-Rex Flp-In full-length SSAO; CHO T-Rex Flp-In full-length SSAO with C-terminal 6×HIS tag; CHO T-Rex Flp-In T1 SSAO; CHO T-Rex Flp-In T1 SSAO with C-terminal 6×HIS tag; CHO T-Rex Flp-In T2 SSAO; CHO Flp-In T2 SSAO with C-terminal 6×HIS tag; HEK 293 Flp-In full-length SSAO; HEK 293 Flp-In full-length SSAO with C-terminal 6×HIS tag; HEK 293 Flp-In T1 SSAO; HEK 293 Flp-In T1 SSAO with C-terminal 6×HIS tag; HEK 293 Flp-In T2 SSAO; HEK 293 Flp-In T2 SSAO with C-terminal 6×HIS tag.
Adherent CHO cells were cultured at 37° C., 5% CO2 in media containing Ham's F12, 10% fetal bovine serum, 2 mM L-glutamine, 1% Penicillin/Streptomycin, 300 μM hygromycin B. Adherent HEK 293 cells were cultured at 37° C., 5% CO2 in D-MEM (high glucose), 10% fetal bovine serum, 2 mM L-glutamine, and 200 μM hygromycin B. Stable transformants were identified by loss of zeocin resistance. Once the cells were 80% confluent, SSAO expression was induced by the addition of Tetracycline to 1 μg/mL. Following 18 hours, the cells were harvested using a trypsin treatment of 3 minutes, at room temperature. Cells were washed 3 times in phosphate buffered saline before flash freezing in liquid nitrogen.
For the preparation of cell lysate for activity testing, frozen cell pellets were resuspended in lysate buffer containing 10 mM Tris-HCl (pH 7.2), 150 mM NaCl, 1.5 mM MgCl2, 1% v/v NP-40 and incubated for 15 minutes on ice. Lysate was cleared by centrifugation 800×g for 10 minutes, 4° C. and stored in aliquots at −80° C. until use. Proteins were determined using Pierce Coomassie Protein Reagent, according to manufacturer's instructions.
For each assay run, 1 mL of cell lysate (1.5 mg/mL protein) was mixed with benzylamine to 2000 ng/mL final concentration. At each corresponding time point, […] the incubation mixture was transferred to a microcentrifuge tube (1.7 mL) and mixed with 50 μL of acetonitrile. The tubes were vortex mixed briefly to ensure complete mixing and then centrifuged at 10,000×g for 5 minutes. The supernatant was removed and 50 μL was transferred to an autosampler vial and mixed with 50 μL of water before LC/MS/MS analysis. Benzylamine remaining in the lysate was analyzed with LC/MS/MS method.
LC/MS/MS analysis was performed with a PE Sciex API 3000 mass spectrometer under the following conditions listed below and in Tables 1 and 2: […]

SMILES: NCc1ccccc1 [Benzylamine]
- Benzylamine Remaining (%) (CHO Flp-In T-Rex lysate, 0 min): 100%
- Benzylamine Remaining (%) (CHO Flp-In T-Rex lysate, 10 min): 100%
- Benzylamine Remaining (%) (CHO Flp-In T-Rex lysate, 2 h): 97%
- Benzylamine Remaining (%) (CHO Flp-In lysate, 0 min): 100%
- Benzylamine Remaining (%) (CHO Flp-In lysate, 10 min): 108%
- Benzylamine Remaining (%) (CHO Flp-In lysate, 2 h): 102%
- Benzylamine Remaining (%) (HEK293 lysate, 0 min): 100%
- Benzylamine Remaining (%) (HEK293 lysate, 10 min): 100%
- Benzylamine Remaining (%) (HEK293 lysate, 2 h): 117%
